The source of these data is patent US9814699B2, “Chemical compounds” (Janssen Pharmaceuticals, Inc., priority 2009, dated 2017).

SMILES strings stand for the structures.

The subject of assay [1] is HCV genotype 1a subgenomic replicon. Put plainly: HCV replicon assay, genotype 1a subgenomic replicon (luciferase). Type of assay: cell-based. Particulars: Hepatitis C virus; genotype 1a replicon stable cell line, luciferase activity measured 48 hours later; read-out: Replicon 1A pEC50 (converted). As to the method:
(§1) Protocol for Testing and Data Analysis of Compounds in the HCV Replicon Assay
(§2) Compounds were assayed for activity against HCV using the genotype 1a and 1b subgenomic replicon model systems. Stable cell lines bearing the genotype 1a and 1b replicons were used for screening of compounds. Both replicons are bicistronic and contain the firefly luciferase gene. The ET cell line is stably transfected with RNA transcripts harboring a I389luc-ubi-neo/NS3-3′/ET replicon with firefly luciferase-ubiquitin-neomycin phosphotransferase fusion protein and EMCV-IRES driven NS3-5B polyprotein containing the cell culture adaptive mutations (E1202G; T1280I; K1846T) (Krieger at al, 2001 and unpublished). The genotype 1a replicon is a stable cell line licensed from Apath LLC, modified to contain the firefly luciferase gene. The cells were grown in DMEM, supplemented with 10% fetal calf serum, 2 mM Glutamine, Penicillin (100 IU/mL)/Streptomycin (100 μg/mL), 1× nonessential amino acids, and 250-500 μg/mL G418 (“Geneticin”). They were all available through Life Technologies (Bethesda, Md.). The cells were plated at 5×10^3 cells/well in 384 well plates containing compounds. The final concentration of compounds ranged between 0.03 pM to 50 μm and the final DMSO concentration of 0.5-1%.
(§3) Luciferase activity was measured 48 hours later by adding a Steady glo reagent (Promega, Madison, Wis.). Percent inhibition of replication data was plotted relative to no compound control. Under the same condition, cytotoxicity of the compounds was determined using cell titer glo (Promega, Madison, Ws). EC50s were determined from an 11 point dose response curve using 3-4-fold serial dilution for each compound, which spans a concentration range >1000 fold. The level of inhibition for each compound was determined with Activity Base or with BioAssay plus the Excel XC50 module. Percent inhibition was determined with the following equation where the cross-talk corrected value is the value from the test well, the compound positive control mean is the average value of the wells with no compound present, and the DMSO negative control mean is the average value of the wells with DMSO but no cells present.
(§4) [formula] These normalized values are exported to EC50 where they are plotted against the molar compound concentrations using the standard four parameter logistic equation: […]
(In general: Replicon systems follow genome replication, usually without infectious particles.)

In assay [2] the test system is HCV genotype 1b subgenomic replicon. The assay can be described thus: HCV replicon assay, genotype 1b subgenomic replicon (ET cell line, luciferase). Type of assay: cell-based. Particulars: Hepatitis C virus; genotype 1b replicon ET cell line, luciferase activity measured 48 hours later; read-out: Replicon 1B pEC50 (converted). As to the method:
as §1, §2, §3, §4

Turning to `COC(=O)N[C@H](C(=O)N1CCC[C@H]1c1ncc(-c2ccc(-c3ccc(-c4cnc([C@@H]5CC6(CN5C(=O)[C@@H](NC(=O)OC)C(C)C)O[C@@H](C)C[C@H](C)O6)[nH]4)cc3)cc2)[nH]1)C(C)C` (stereo partly drawn) [Example 1, methyl [(1S)-1-({(2S)-2-[4-(4′-{2-[(3S,7S,9S)-7,9-dimethyl-2-((2S)-3-methyl-2-{[(methyloxy)carbonyl]amino}butanoyl)-6,10-dioxa-2-azaspiro[4.5]dec-3-yl]-1H-imidazol-4-yl}-4-biphenylyl)-1H-imidazol-2-yl]-1-pyrrolidinyl}carbonyl)-2-methylpropyl]carbamate], the EC50 in assay [1] was 1.58 nM; in assay [2] it was 0.01 nM.
`COC(=O)N[C@H](C(=O)N1CCC[C@H]1c1ncc(-c2ccc(-c3ccc(-c4cnc([C@@H]5CC6(CN5C(=O)[C@@H](NC(=O)OC)C(C)C)OCCO6)[nH]4)cc3)cc2)[nH]1)C(C)C` [Example 2, methyl [(1S)-2-methyl-1-({(2S)-2-[4-(4′-{2-[(8S)-7-((2S)-3-methyl-2-{[(methyloxy)carbonyl]amino}butanoyl)-1,4-dioxa-7-azaspiro[4.4]non-8-yl]-1H-imidazol-4-yl}-4-biphenylyl)-1H-imidazol-2-yl]-1-pyrrolidinyl}carbonyl)propyl]carbamate]: the EC50 is 0.0398 nM in assay [1] and 0.00794 nM in assay [2].
For `COC(=O)N[C@H](C(=O)N1CC2(C[C@H]1c1ncc(-c3ccc(-c4ccc(-c5cnc([C@@H]6CC7(CN6C(=O)[C@@H](NC(=O)OC)C(C)C)O[C@@H](C)C[C@H](C)O7)[nH]5)cc4)cc3)[nH]1)O[C@@H](C)C[C@H](C)O2)C(C)C` (stereo partly drawn) [Example 3, dimethyl (4,4′-biphenyldiylbis{1H-imidazole-4,2-diyl[(3S,7S,9S)-7,9-dimethyl-6,10-dioxa-2-azaspiro[4.5]decane-3,2-diyl][(2S)-3-methyl-1-oxo-1,2-butanediyl]})biscarbamate] the same measures were 25.1 nM and 0.0158 nM.
For the compound `COC(=O)N[C@H](C(=O)N1CC2(C[C@H]1c1ncc(-c3ccc(-c4ccc(-c5cnc([C@@H]6CC7(CN6C(=O)[C@@H](NC(=O)OC)C(C)C)OCCO7)[nH]5)cc4)cc3)[nH]1)OCCO2)C(C)C` [Example 4, dimethyl (4,4′-biphenyldiylbis{1H-imidazole-4,2-diyl(8S)-1,4-dioxa-7-azaspiro[4.4]nonane-8,7-diyl[(2S)-3-methyl-1-oxo-1,2-butanediyl]})biscarbamate], the EC50 in assay [1] is 0.0398 nM; in assay [2], 0.01 nM.
As to `COC(=O)N[C@@H](C)C(=O)N1CC2(C[C@H]1c1ncc(-c3ccc(-c4ccc(-c5cnc([C@@H]6CCCN6C(=O)[C@@H](NC(=O)OC)C(C)C)[nH]5)cc4)cc3)[nH]1)OCCCO2` [Example 5, methyl ((1S)-1-methyl-2-{(3S)-3-[4-(4′-{2-[(2S)-1-((2S)-3-methyl-2-{[(methyloxy)carbonyl]amino}butanoyl)-2-pyrrolidinyl]-1H-imidazol-4-yl}-4-biphenylyl)-1H-imidazol-2-yl]-6,10-dioxa-2-azaspiro[4.5]dec-2-yl}-2-oxoethyl)carbamate], the EC50 in assay [1] was 0.0794 nM; in assay [2], 0.02 nM.
As for `COC(=O)N[C@H](C(=O)N1CCC[C@H]1c1ncc(-c2ccc(-c3ccc(-c4cnc([C@@H]5CC6(CN5C(=O)[C@@H](NC(=O)OC)C(C)C)OCCCO6)[nH]4)cc3)cc2)[nH]1)C(C)C` [Example 6, methyl [(1S)-2-methyl-1-({(2S)-2-[4-(4′-{2-[(3S)-2-((2S)-3-methyl-2-{[(methyloxy)carbonyl]amino}butanoyl)-6,10-dioxa-2-azaspiro[4.5]dec-3-yl]-1H-imidazol-4-yl}-4-biphenylyl)-1H-imidazol-2-yl]-1-pyrrolidinyl}carbonyl)propyl]carbamate], the values for the EC50 in assay [1] and in assay [2] were 0.0251 nM and 0.00794 nM, respectively.
Turning to `COC(=O)N[C@H](C(=O)N1CCC[C@H]1c1ncc(-c2ccc(-c3ccc(-c4cnc([C@@H]5CC6(CN5C(=O)[C@@H](NC(=O)OC)C(C)C)OCC(C)(C)CO6)[nH]4)cc3)cc2)[nH]1)C(C)C` [Example 7, methyl [(1S)-1-({(2S)-2-[4-(4′-{2-[(3S)-8,8-dimethyl-2-((2S)-3-methyl-2-{[(methyloxy)carbonyl]amino}butanoyl)-6,10-dioxa-2-azaspiro[4.5]dec-3-yl]-1H-imidazol-4-yl}-4-biphenylyl)-1H-imidazol-2-yl]-1-pyrrolidinyl}carbonyl)-2-methylpropyl]carbamate], the figures for the EC50 in assay [1] and in assay [2] were 0.794 nM and 0.00251 nM, respectively.
As to `[2H]C1([2H])OC2(C[C@@H](c3ncc(-c4ccc(-c5ccc(-c6cnc([C@@H]7CCCN7C(=O)[C@@H](NC(=O)OC)C(C)C)[nH]6)cc5)cc4)[nH]3)N(C(=O)[C@@H](NC(=O)OC)C(C)C)C2)OC([2H])([2H])C1([2H])[2H]` [Example 8, methyl [(1S)-2-methyl-1-({(2S)-2-[4-(4′-{2-[(3S)-2-((2S)-3-methyl-2-{[(methyloxy)carbonyl]amino}butanoyl)-6,10-dioxa-2-azaspiro[4.5]dec-3-yl]-1H-imidazol-4-yl}-4-biphenylyl)-1H-imidazol-2-yl]-1-pyrrolidinyl}carbonyl)propyl]carbamate-d6], the EC50 in assay [1] was 0.0316 nM; in assay [2], 0.00794 nM.
With `[2H]C1([2H])OC2(C[C@@H](c3ncc(-c4ccc(-c5ccc(-c6cnc([C@@H]7CCCN7C(=O)[C@@H](NC(=O)OC)C(C)C)[nH]6)cc5)cc4)[nH]3)N(C(=O)[C@@H](NC(=O)OC)C(C)C)C2)OC1([2H])[2H]` [Example 9, methyl [(1S)-2-methyl-1-({(2S)-2-[4-(4′-{2-[(8S)-7-((2S)-3-methyl-2-{[(methyloxy)carbonyl]amino}butanoyl)-1,4-dioxa-7-azaspiro[4.4]non-8-yl]-1H-imidazol-4-yl}-4-biphenylyl)-1H-imidazol-2-yl]-1-pyrrolidinyl}carbonyl)propyl]carbamate-d4], the EC50 in assay [1] was 0.0316 nM; in assay [2] it was 0.00631 nM.
`COC(=O)N[C@H](C(=O)N1CCC[C@H]1c1ncc(-c2ccc(-c3ccc(-c4cnc([C@@H]5CC6(CN5C(=O)[C@@H](NC(=O)OC)C(C)C)O[C@H](C)[C@@H](C)O6)[nH]4)cc3)cc2)[nH]1)C(C)C` [Example 10, methyl [(1S)-1-({(2S)-2-[4-(4′-{2-[(2R,3R,8S)-2,3-dimethyl-7-((2S)-3-methyl-2-{[(methyloxy)carbonyl]amino}butanoyl)-1,4-dioxa-7-azaspiro[4.4]non-8-yl]-1H-imidazol-5-yl}-4-biphenylyl)-1H-imidazol-2-yl]-1-pyrrolidinyl}carbonyl)-2-methylpropyl]carbamate]: the results for the EC50 in assay [1] and in assay [2] were 2 nM and 0.01 nM, respectively.
Turning to `COC(=O)N[C@H](C(=O)N1CCC[C@H]1c1ncc(-c2ccc(-c3ccc(-c4cnc([C@@H]5CC6(CN5C(=O)[C@@H](NC(=O)OC)C(C)C)O[C@@H](C)[C@H](C)O6)[nH]4)cc3)cc2)[nH]1)C(C)C` [Example 11, methyl [(1S)-1-({(2S)-2-[4-(4′-{2-[(2S,3S,8S)-2,3-dimethyl-7-((2S)-3-methyl-2-{[(methyloxy)carbonyl]amino}butanoyl)-1,4-dioxa-7-azaspiro[4.4]non-8-yl]-1H-imidazol-5-yl}-4-biphenylyl)-1H-imidazol-2-yl]-1-pyrrolidinyl}carbonyl)-2-methylpropyl]carbamate], the values for the EC50 in assay [1] and in assay [2] were 1.26 nM and 0.01 nM, respectively.
